The pEC50 is the negative decadic logarithm of the EC50, by convention in mol/L. A low value points to a high EC50.

The structures appear in SMILES notation. A value given as a limit tells only on which side of the number the result lay.

The results in this text go back to the supplement of paper PMC5580409.

The test concerns Plasmodium falciparum 3D7. Description: pEC50, asexual blood-stage growth inhibition. Conditions: 72 h. As to the method: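 Held-out test set measured in the Guy lab in 2014 with the same procedure as the primary St. Jude screen. P. falciparum 3D7 blood-stage culture (2% hematocrit, 1% parasitemia) was treated with compound for 72 h at 37 °C, and growth was read by SYBR Green I fluorescence. EC50 came from a four-parameter Hill fit over a 10-point dilution series […].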

`Cc1ccc2[nH]c(-c3ccc(Br)cc3)nc2c1` displayed a pEC50 of less than 4.82.

As to `OC(CNc1cccc2ccccc12)Cn1c2ccc(Cl)cc2c2cc(Cl)ccc21` (configuration not stated), the pEC50 was 5.36.

On to `COc1ccc(OC)c(NCC(O)Cn2c3ccc(Cl)cc3c3cc(Cl)ccc32)c1` (configuration not stated), for which the pEC50 is less than 4.82.

For `Oc1ccc(Br)cc1CN1CCN(Cc2cccc3ccccc23)CC1`, the pEC50 turned out to be 6.3.

Regarding `Clc1ccc(CN2CCN(C3CC4CCC3C4)CC2)cc1` (configuration not stated), the pEC50 is less than 4.82.

Molecule `c1cc(-c2nc3ccccc3[nH]2)nc(-c2nc3ccccc3[nH]2)c1` came in with a pEC50 of 5.39.

For `CCOC(=O)C1=C(C)NC2=C(C(=O)CC(c3ccc(Cl)cc3)C2)C1c1ccc(OC)cc1` (configuration not stated), the pEC50 is 5.93.

Take `Cc1ccc2c(c1)c1c3n2CCCN(Cc2ccc(Br)cc2)C3CCC1` (configuration not stated): the pEC50 is less than 4.82.

Molecule `CN(C)CCCn1c(=N)n(CC(O)c2ccc(Br)cc2)c2ccccc21` (configuration not stated) showed a pEC50 of 5.54.

Molecule `O=C1CC(c2c(F)cccc2Cl)C2=C(CC(c3ccc(F)cc3)CC2=O)N1` (configuration not stated) came in with a pEC50 of less than 4.82.

Turning to `CCCn1nnnc1NCc1cc(Br)c(OCc2ccccc2)c(OC)c1`, the pEC50 is less than 4.82.

`CN(C)c1nc(N(C#N)CCOc2ccccc2)nc(N2CCOCC2)n1` had a pEC50 of less than 4.82.

In turn, `O=C(Nc1ccc([N+](=O)[O-])cc1O)C1CC1(c1ccccc1)c1ccccc1` (configuration not stated) yielded a pEC50 of less than 4.82.

In turn, `O=C(Nc1ccncc1)C1CC1c1ccccc1` (configuration not stated) gave a pEC50 of less than 4.82.

For the molecule `O=C(NC1C2CC3CC(C2)CC1C3)c1ccc2c(=O)n3c(nc2c1)CCCCC3` (configuration not stated), the pEC50 was less than 4.82.

On to `CCCCn1c(=N)n(CC(=O)c2ccc(Cl)cc2)c2ccccc21`, for which the pEC50 was less than 4.82.

For the molecule `O=C(Nc1ccc(-c2nc3cc(-c4nc5cc(NC(=O)c6cccc7ccccc67)ccc5[nH]4)ccc3[nH]2)cc1)c1cccc2ccccc12`, the pEC50 is less than 4.82.

For `Cc1ccc2c(c1)c1c3n2CCCN(Cc2ccc(C(C)C)cc2)C3CCC1` (configuration not stated), the pEC50 was less than 4.82.

With `CCN1\C(=C/C=C(C)/C=C/c2sc3ccccc3[n+]2CC)Sc2ccccc21`, the pEC50 came to 5.34.

Consider `Cc1ccc2nc(-c3cccnc3)cc(C(=O)N3CCN(C(c4ccccc4)c4ccccc4)CC3)c2c1`, for which the pEC50 came to 5.71.

Molecule `Cc1cccc2c(C(=O)N3CCN(C/C=C/c4ccccc4)CC3)cc(-c3cccnc3)nc12` registered a pEC50 of less than 4.82.

With `Cc1cccc(NC(=O)/C=C/c2ccccc2Cl)c1`, the pEC50 is less than 4.82.

On to `OCCC1CN(Cc2cc(Cl)ccc2O)CCN1C1CCCCC1` (configuration not stated), for which the pEC50 was less than 4.82.

Regarding `COC(=O)[C@@H](NC(=O)c1cn(C2CCCCC2)cc(C(=O)NC(C)(C)C)c1=O)c1ccccc1`, the pEC50 was less than 4.82.

In turn, `COc1ccc(OC)c(C2CC(=O)C3=C(C2)NC(=O)CC3c2ccc(Cl)cc2Cl)c1` (configuration not stated) came in with a pEC50 of less than 4.82.

Regarding `OC(CNc1cccc2ccccc12)Cn1c2ccccc2c2ccccc21` (configuration not stated), the pEC50 is less than 4.82.

The molecule `OCC(O)Cn1c2ccc(Br)cc2c2cc(Br)ccc21` (configuration not stated) yielded a pEC50 of less than 4.82.

The molecule `Cc1ccc2[nH]c(-c3ccc(NC(=O)c4ccc(C)c(C)c4)cc3)nc2c1` registered a negative-log EC50 (pEC50) of 5.44.

In turn, `CCOc1ccc(C(O)Cn2c(=N)n(CCN3CCCCC3)c3ccccc32)cc1` (configuration not stated) had a pEC50 of less than 4.82.

`CCOC(=O)c1cnc2c(C)cccc2c1Nc1cccc(C(C)=O)c1`: the pEC50 was determined as 5.35.

As to `N=c1n(CCN2CCCC2)c2ccccc2n1CC(O)c1ccc(Cl)c(Cl)c1` (configuration not stated), the pEC50 is 5.88.

`Nc1ccc(C(=O)Nc2ccc(-c3nc4cc(NC(=O)c5ccc(N)cc5)ccc4[nH]3)cc2)cc1` gave a pEC50 of less than 4.82.

`O=c1c(Oc2ccc3ccccc3c2)c(C(F)(F)F)oc2c(CN3CCCC3)c(O)ccc12` returned a pEC50 of 5.27.

The molecule `N=c1n(CCN2CCCCC2)c2ccccc2n1CC(O)c1cccc(Br)c1` (configuration not stated) returned a pEC50 of 5.73.

Molecule `CCOC(=O)c1cccc(NC(=O)CC2C(=O)N(c3ccc(F)cc3)C(=O)N2Cc2ccccn2)c1` (configuration not stated) registered a pEC50 of less than 4.82.

With `CN1CCN(Cc2c(O)ccc3c(=O)c(Oc4ccc5ccccc5c4)c(C(F)(F)F)oc23)CC1`, the pEC50 was less than 4.82.

`Cn1nccc1C(=O)Nc1cc(Oc2ccc(Cl)cc2)cc([N+](=O)[O-])c1` had a pEC50 of less than 4.82.
